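Where inhibition never reached the appropriate level, the endpoint shown equals the highest concentration tested. Otherwise, values were interpolated linearly from a five-concentration, 48-hour dose response in 96-well plates. The concentration for 50% growth inhibition is given as GI50.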 Active and inactive are the calls of the source. Cut-off read from the data, not from the text of the source: active = GI50 up to about 1.1 µM and inactive = higher.
Legend:
Experiment in all cases: growth of human tumour cells (NCI), 48 h
HCT-15 = test system: HCT-15
RPMI-8226 = test system: RPMI-8226
CAKI-1 = test system: CAKI-1
RXF 393 = test system: RXF 393
EKVX = test system: EKVX
OVCAR-3 = test system: OVCAR-3
OVCAR-8 = test system: OVCAR-8
MOLT-4 = test system: MOLT-4
HCC 2998 = test system: HCC 2998
NCI-H23 = test system: NCI-H23
SK-MEL-28 = test system: SK-MEL-28
KM12 = test system: KM12
SF-539 = test system: SF-539
KM-20L2 = test system: KM-20L2
XF498 = test system: XF498
OVCAR-4 = test system: OVCAR-4
UACC-62 = test system: UACC-62
UACC-257 = test system: UACC-257
HOP-62 = test system: HOP-62
HCT-116 = test system: HCT-116
TK-10 = test system: TK-10
HL-60 = test system: HL-60
LXFL 529 = test system: LXFL 529
ACHN = test system: ACHN
SW-620 = test system: SW-620
SF-295 = test system: SF-295
SN12C = test system: SN12C
DMS-273 = test system: DMS-273
NCI-H226 = test system: NCI-H226
Malme-3M = test system: Malme-3M
U-251 = test system: U-251
A549 = test system: A549
SF-268 = test system: SF-268
SK-MEL-2 = test system: SK-MEL-2
HT-29 = test system: HT-29
M14 = test system: M14
LOX IMVI = test system: LOX IMVI
K562 = test system: K562
DMS-114 = test system: DMS-114
UO-31 = test system: UO-31
SR = test system: SR
NCI-H522 = test system: NCI-H522
IGROV-1 = test system: IGROV-1
SK-OV-3 = test system: SK-OV-3
RXF 631 = test system: RXF 631
COLO 205 = test system: COLO 205
786-0 = test system: 786-0
SNB-78 = test system: SNB-78
HOP-18 = test system: HOP-18
DLD-1 = test system: DLD-1
SNB-19 = test system: SNB-19
M19-MEL = test system: M19-MEL
OVCAR-5 = test system: OVCAR-5
CCRF-CEM = test system: CCRF-CEM
NCI-H460 = test system: NCI-H460
SK-MEL-5 = test system: SK-MEL-5
HOP-92 = test system: HOP-92
SNB-75 = test system: SNB-75
A498 = test system: A498

SMILES: CCOC(=O)c1cc(-c2ccc(-c3cc(C(=O)OCC)c(C#N)c(N)c3C#N)cc2)c(C#N)c(N)c1C#N
- GI50 (HCT-15): > 100 µM
- GI50 (RPMI-8226): > 100 µM (inactive)
- GI50 (CAKI-1): > 100 µM (inactive)
- GI50 (RXF 393): > 100 µM (inactive)
- GI50 (EKVX): > 100 µM (inactive)
- GI50 (OVCAR-3): > 100 µM (inactive)
- GI50 (OVCAR-8): > 100 µM (inactive)
- GI50 (MOLT-4): > 100 µM (inactive)
- GI50 (HCC 2998): > 100 µM (inactive)
- GI50 (NCI-H23): > 100 µM (inactive)
- GI50 (SK-MEL-28): > 100 µM (inactive)
- GI50 (KM12): > 100 µM (inactive)
- GI50 (SF-539): > 100 µM (inactive)
- GI50 (KM-20L2): > 100 µM (inactive)
- GI50 (XF498): > 100 µM (inactive)
- GI50 (OVCAR-4): > 100 µM (inactive)
- GI50 (UACC-62): > 100 µM (inactive)
- GI50 (UACC-257): > 100 µM (inactive)
- GI50 (HOP-62): > 100 µM (inactive)
- GI50 (HCT-116): > 100 µM (inactive)
- GI50 (TK-10): > 100 µM (inactive)
- GI50 (HL-60): > 100 µM (inactive)
- GI50 (LXFL 529): > 100 µM (inactive)
- GI50 (ACHN): > 100 µM (inactive)
- GI50 (SW-620): > 100 µM (inactive)
- GI50 (SF-295): > 100 µM (inactive)
- GI50 (SN12C): > 100 µM (inactive)
- GI50 (DMS-273): > 100 µM (inactive)
- GI50 (NCI-H226): > 100 µM (inactive)
- GI50 (Malme-3M): > 100 µM (inactive)
- GI50 (U-251): > 100 µM (inactive)
- GI50 (A549): > 100 µM (inactive)
- GI50 (SF-268): > 100 µM (inactive)
- GI50 (SK-MEL-2): > 100 µM (inactive)
- GI50 (HT-29): > 100 µM (inactive)
- GI50 (M14): > 100 µM (inactive)
- GI50 (LOX IMVI): > 100 µM (inactive)
- GI50 (K562): > 100 µM (inactive)
- GI50 (DMS-114): > 100 µM (inactive)
- GI50 (UO-31): > 100 µM (inactive)
- GI50 (SR): > 100 µM (inactive)
- GI50 (NCI-H522): > 100 µM (inactive)
- GI50 (IGROV-1): > 100 µM (inactive)
- GI50 (SK-OV-3): > 100 µM (inactive)
- GI50 (RXF 631): > 100 µM (inactive)
- GI50 (COLO 205): > 100 µM (inactive)
- GI50 (786-0): > 100 µM (inactive)
- GI50 (SNB-78): > 100 µM (inactive)
- GI50 (HOP-18): > 100 µM (inactive)
- GI50 (DLD-1): > 100 µM (inactive)
- GI50 (SNB-19): > 100 µM (inactive)
- GI50 (M19-MEL): > 100 µM (inactive)
- GI50 (OVCAR-5): > 100 µM (inactive)
- GI50 (CCRF-CEM): > 100 µM (inactive)
- GI50 (NCI-H460): > 100 µM (inactive)

SMILES: COc1ccc2nc3cccc(C(=O)NCCN(C)C)c3nc2c1
- GI50 (HCT-15): 1.43 µM
- GI50 (RPMI-8226): 0.824 µM (active)
- GI50 (RXF 393): 1.55 µM (inactive)
- GI50 (EKVX): 3.06 µM (inactive)
- GI50 (OVCAR-3): 2.08 µM (inactive)
- GI50 (OVCAR-8): 1.46 µM (inactive)
- GI50 (MOLT-4): 0.187 µM (active)
- GI50 (SK-MEL-5): 2.04 µM (inactive)
- GI50 (HCC 2998): 1.85 µM (inactive)
- GI50 (NCI-H23): 1.41 µM (inactive)
- GI50 (SK-MEL-28): 2.25 µM (inactive)
- GI50 (KM12): 1.3 µM (inactive)
- GI50 (SF-539): 2.1 µM (inactive)
- GI50 (KM-20L2): 2.2 µM (inactive)
- GI50 (XF498): 0.292 µM (active)
- GI50 (OVCAR-4): 1.63 µM (inactive)
- GI50 (UACC-62): 2.24 µM (inactive)
- GI50 (UACC-257): 2.64 µM (inactive)
- GI50 (HOP-62): 1.45 µM (inactive)
- GI50 (HCT-116): 0.512 µM (active)
- GI50 (HOP-92): 5.13 µM (inactive)
- GI50 (TK-10): 2 µM (inactive)
- GI50 (HL-60): 1.08 µM (active)
- GI50 (LXFL 529): 1.26 µM (inactive)
- GI50 (ACHN): 0.689 µM (active)
- GI50 (SW-620): 0.573 µM (active)
- GI50 (SF-295): 2.08 µM (inactive)
- GI50 (SN12C): 1.39 µM (inactive)
- GI50 (DMS-273): 1.44 µM (inactive)
- GI50 (NCI-H226): 1.32 µM (inactive)
- GI50 (SNB-75): 2.15 µM (inactive)
- GI50 (Malme-3M): 0.571 µM (active)
- GI50 (U-251): 2.57 µM (inactive)
- GI50 (A549): 1.8 µM (inactive)
- GI50 (A498): 1.55 µM (inactive)
- GI50 (SK-MEL-2): 1.59 µM (inactive)
- GI50 (HT-29): 0.632 µM (active)
- GI50 (M14): 2.28 µM (inactive)
- GI50 (LOX IMVI): 0.64 µM (active)
- GI50 (K562): 0.794 µM (active)
- GI50 (DMS-114): 1.29 µM (inactive)
- GI50 (UO-31): 2.45 µM (inactive)
- GI50 (SR): 0.264 µM (active)
- GI50 (NCI-H522): 2.73 µM (inactive)
- GI50 (IGROV-1): 2.67 µM (inactive)
- GI50 (SK-OV-3): 4.09 µM (inactive)
- GI50 (RXF 631): 3.17 µM (inactive)
- GI50 (COLO 205): 1.75 µM (inactive)
- GI50 (786-0): 2.25 µM (inactive)
- GI50 (SNB-78): 2.88 µM (inactive)
- GI50 (HOP-18): 3.19 µM (inactive)
- GI50 (DLD-1): 1.37 µM (inactive)
- GI50 (SNB-19): 2.84 µM (inactive)
- GI50 (M19-MEL): 1.64 µM (inactive)
- GI50 (OVCAR-5): 1.51 µM (inactive)

SMILES: N#Cc1c(C(N)=O)ncn1Cc1ccccc1
- GI50 (HCT-15): > 100 µM
- GI50 (RPMI-8226): > 100 µM (inactive)
- GI50 (CAKI-1): > 100 µM (inactive)
- GI50 (RXF 393): > 100 µM (inactive)
- GI50 (EKVX): > 100 µM (inactive)
- GI50 (OVCAR-3): > 100 µM (inactive)
- GI50 (OVCAR-8): > 100 µM (inactive)
- GI50 (MOLT-4): > 100 µM (inactive)
- GI50 (SK-MEL-5): > 100 µM (inactive)
- GI50 (HCC 2998): > 100 µM (inactive)
- GI50 (NCI-H23): > 100 µM (inactive)
- GI50 (KM12): > 100 µM (inactive)
- GI50 (SF-539): > 100 µM (inactive)
- GI50 (KM-20L2): > 100 µM (inactive)
- GI50 (XF498): > 100 µM (inactive)
- GI50 (OVCAR-4): > 100 µM (inactive)
- GI50 (UACC-62): > 100 µM (inactive)
- GI50 (UACC-257): > 100 µM (inactive)
- GI50 (HOP-62): > 100 µM (inactive)
- GI50 (HCT-116): > 100 µM (inactive)
- GI50 (HOP-92): > 100 µM (inactive)
- GI50 (TK-10): > 100 µM (inactive)
- GI50 (HL-60): > 100 µM (inactive)
- GI50 (LXFL 529): > 100 µM (inactive)
- GI50 (ACHN): > 100 µM (inactive)
- GI50 (SW-620): > 100 µM (inactive)
- GI50 (SF-295): > 100 µM (inactive)
- GI50 (SN12C): > 100 µM (inactive)
- GI50 (DMS-273): > 100 µM (inactive)
- GI50 (NCI-H226): > 100 µM (inactive)
- GI50 (SNB-75): > 100 µM (inactive)
- GI50 (Malme-3M): > 100 µM (inactive)
- GI50 (U-251): > 100 µM (inactive)
- GI50 (A549): > 100 µM (inactive)
- GI50 (SF-268): > 100 µM (inactive)
- GI50 (A498): > 100 µM (inactive)
- GI50 (SK-MEL-2): > 100 µM (inactive)
- GI50 (HT-29): > 100 µM (inactive)
- GI50 (M14): > 100 µM (inactive)
- GI50 (LOX IMVI): > 100 µM (inactive)
- GI50 (K562): > 100 µM (inactive)
- GI50 (DMS-114): > 100 µM (inactive)
- GI50 (UO-31): > 100 µM (inactive)
- GI50 (NCI-H522): > 100 µM (inactive)
- GI50 (IGROV-1): > 100 µM (inactive)
- GI50 (SK-OV-3): > 100 µM (inactive)
- GI50 (RXF 631): > 100 µM (inactive)
- GI50 (COLO 205): > 100 µM (inactive)
- GI50 (786-0): > 100 µM (inactive)
- GI50 (SNB-78): > 100 µM (inactive)
- GI50 (HOP-18): > 100 µM (inactive)
- GI50 (DLD-1): > 100 µM (inactive)
- GI50 (SNB-19): > 100 µM (inactive)
- GI50 (M19-MEL): > 100 µM (inactive)
- GI50 (OVCAR-5): > 100 µM (inactive)
- GI50 (CCRF-CEM): > 100 µM (inactive)
- GI50 (NCI-H460): > 100 µM (inactive)

Reference: ChEMBL document CHEMBL1201862, “PubChem BioAssay data set” (2004)
